According to US20260250260A1, “POLYMORPH OF 7,8-DIHYDROXYFLAVONE, AND PREPARATION METHOD THEREFOR” (HUIANKAI (XIAMEN) PHARMACEUTICAL TECHNOLOGY CO., LTD., priority 2022, published 2026):
In brackets after ≈: the same amount, converted by molar mass.

Legend:
Type in all cases: physicochemical
[1] = Crystal form conversion of comparative crystal forms on drying, at room temperature or on heating
[2] = Dynamic vapor sorption analysis (DVS); conditions: range of 0%-95% relative humidity; mass gain relative to initial mass
Procedure: Dynamic vapor sorption and desorption analysis was measured using DVS Intrinsic (SMS, UK). The test was performed in gradient mode with a humidity change of 50%-95%-0%-50%, with a change of 10% per humidity gradient in the range of 0% to 90%. The gradient endpoint was determined by dm/dt; the gradient endpoint lies where the dm/dt was less than 0.002% and maintained for 10 minutes. After the test was completed, the samples were analyzed by XRPD to confirm whether the solid morphology had changed.

[3] = Stability of different 7,8-dihydroxyflavone crystal forms (XRPD characterization); conditions: for crystal form stability (general statement): performance embodiment, no conditions stated
Procedure: The stability of different 7,8-dihydroxyflavonoid crystal forms was studied under high temperature (60° C.), high humidity (25° C./92.5% RH), illumination (25° C./4500 Lux), and acceleration (40° C./75% RH) conditions, and samples were taken for XRPD characterization on day 7 and day 15, respectively.

[4] = Dynamic solubility in biological medium (FaSSIF, FeSSIF, FaSSGF) and water
Procedure: The 20 mg of 7,8-dihydroxyflavones in different crystal forms were weighed out separately and added into 4.0 mL of biological medium or water, and shaken at a constant temperature of 37° C. for 24 h. Samples were taken at 0.5 h, 2 h and 24 h, respectively, and the sampled solutions were filtered through 0.22 μm aquo-system filter membranes. Signal peak areas of the solutions were measured by HPLC, and finally, concentrations of the compounds in the solutions were calculated based on the peak areas, HPLC standard curves of the raw materials, and the dilution times. In addition, the supernatant at 24 h was taken to test pH, and the residual solid was subjected to the XRPD test. [table]

[5] = FaSSGF pH 1.6, residual solid after 24 h at 37° C.
[6] = FaSSGF pH 1.6, supernatant at 24 h
[7] = FaSSIF pH 6.5, residual solid after 24 h at 37° C.
[8] = FaSSIF pH 6.5, supernatant at 24 h
[9] = FeSSIF pH 5.0, residual solid after 24 h at 37° C.
[10] = FeSSIF pH 5.0, supernatant at 24 h
[11] = Water, residual solid after 24 h at 37° C.

Structure (SMILES): O=c1cc(-c2ccccc2)oc2c(O)c(O)ccc12 [crystal form E, 7,8-dihydroxyflavone]
- crystal form conversion ([1]; at room temperature): convert to the crystal form N

Structure (SMILES): O=c1cc(-c2ccccc2)oc2c(O)c(O)ccc12 [crystal form R, 7,8-dihydroxyflavone]
- crystal form conversion ([1]; at room temperature): cannot exist at room temperature for a long period

Structure (SMILES): O=c1cc(-c2ccccc2)oc2c(O)c(O)ccc12 [crystal form T, 7,8-dihydroxyflavone]
- crystal form conversion ([1]; at room temperature): cannot exist at room temperature for a long period

Structure (SMILES): O=c1cc(-c2ccccc2)oc2c(O)c(O)ccc12 [crystal form K, 7,8-dihydroxyflavone]
- crystal form conversion ([1]; heated to 150° C. and then cooled to room temperature): convert to mixed crystals of the crystal form F and the crystal form J

Structure (SMILES): O=c1cc(-c2ccccc2)oc2c(O)c(O)ccc12 [crystal form M, 7,8-dihydroxyflavone]
- crystal form conversion ([1]; at room temperature): convert to the crystal form C

Structure (SMILES): O=c1cc(-c2ccccc2)oc2c(O)c(O)ccc12 [Crystal form C, 7,8-dihydroxyflavone]
- weight gain in the dynamic vapor sorption plot [2]: less than 0.1%
- Result on day 7 (XRPD) ([3]; Acceleration 40° C./75% RH): No change
- Result on day 15 (XRPD) ([3]; Acceleration 40° C./75% RH): No change
- Result on day 7 (XRPD) ([3]; High humidity 25° C./92.5% RH): No change
- Result on day 15 (XRPD) ([3]; High humidity 25° C./92.5% RH): No change
- Result on day 7 (XRPD) ([3]; High temperature 60° C.): No change
- Result on day 15 (XRPD) ([3]; High temperature 60° C.): No change
- Result on day 7 (XRPD) ([3]; Illumination 25° C./4500 Lux): No change
- Result on day 15 (XRPD) ([3]; Illumination 25° C./4500 Lux): No change
- crystal form stability (general statement) [3]: stable and does not suffer from crystal transformation
- Solubility 0.5 h ([4]; FaSSGF pH 1.6, 37° C.): 2.5 µg/mL (≈ 9.83 µM)
- Solubility 2 h ([4]; FaSSGF pH 1.6, 37° C.): 2.2 µg/mL (≈ 8.65 µM)
- Solubility 24 h ([4]; FaSSGF pH 1.6, 37° C.): 2.4 µg/mL (≈ 9.44 µM)
- Residual solid XRPD [4, 5]: Crystal form C
- Final pH [4, 6]: 1.6
- Solubility 0.5 h ([4]; FaSSIF pH 6.5, 37° C.): 9.0 µg/mL (≈ 35.4 µM)
- Solubility 2 h ([4]; FaSSIF pH 6.5, 37° C.): 10.2 µg/mL (≈ 40.1 µM)
- Solubility 24 h ([4]; FaSSIF pH 6.5, 37° C.): 9.8 µg/mL (≈ 38.5 µM)
- Residual solid XRPD [4, 7]: Crystal form C
- Final pH [4, 8]: 6.5
- Solubility 0.5 h ([4]; FeSSIF pH 5.0, 37° C.): 33.5 µg/mL (≈ 132 µM)
- Solubility 2 h ([4]; FeSSIF pH 5.0, 37° C.): 33.9 µg/mL (≈ 133 µM)
- Solubility 24 h ([4]; FeSSIF pH 5.0, 37° C.): 33.2 µg/mL (≈ 131 µM)
- Residual solid XRPD [4, 9]: Crystal form C
- Final pH [4, 10]: 5.0
- Solubility 0.5 h ([4]; Water, 37° C.): 2.6 µg/mL (≈ 10.2 µM)
- Solubility 2 h ([4]; Water, 37° C.): 3.1 µg/mL (≈ 12.2 µM)
- Solubility 24 h ([4]; Water, 37° C.): 3.3 µg/mL (≈ 13 µM)
- Residual solid XRPD [4, 11]: Crystal form C
- Final pH ([4]; Water, supernatant at 24 h): 5.5

Structure (SMILES): O=c1cc(-c2ccccc2)oc2c(O)c(O)ccc12 [crystal form B, 7,8-dihydroxyflavone]
- crystal form conversion ([1]; at 180° C.): convert to mixed crystals containing the crystal form F and the crystal form J
- crystal form conversion ([1]; at room temperature): tend to convert to the crystal form C
- crystal form conversion ([1]; heated to 110° C.): some characteristic peaks of the crystal form J will appear

Structure (SMILES): O=c1cc(-c2ccccc2)oc2c(O)c(O)ccc12 [crystal form S, 7,8-dihydroxyflavone]
- crystal form conversion ([1]; at room temperature): convert to the crystal form C

Structure (SMILES): O=c1cc(-c2ccccc2)oc2c(O)c(O)ccc12 [Crystal form N, 7,8-dihydroxyflavone]
- weight gain in the dynamic vapor sorption plot [2]: less than 0.1%
- Result on day 7 (XRPD) ([3]; High temperature 60° C.): No change
- Result on day 15 (XRPD) ([3]; High temperature 60° C.): No change
- crystal form stability (general statement) [3]: stable and does not suffer from crystal transformation
- Solubility 0.5 h ([4]; FaSSGF pH 1.6, 37° C.): 13.6 µg/mL (≈ 53.5 µM)
- Solubility 2 h ([4]; FaSSGF pH 1.6, 37° C.): 18.7 µg/mL (≈ 73.6 µM)
- Solubility 24 h ([4]; FaSSGF pH 1.6, 37° C.): 16.1 µg/mL (≈ 63.3 µM)
- Residual solid XRPD [4, 5]: Crystal form N
- Final pH [4, 6]: 1.6
- Solubility 0.5 h ([4]; FaSSIF pH 6.5, 37° C.): 35.8 µg/mL (≈ 141 µM)
- Solubility 2 h ([4]; FaSSIF pH 6.5, 37° C.): 38.7 µg/mL (≈ 152 µM)
- Solubility 24 h ([4]; FaSSIF pH 6.5, 37° C.): 36.5 µg/mL (≈ 144 µM)
- Residual solid XRPD [4, 7]: Crystal form N
- Final pH [4, 8]: 6.4
- Solubility 0.5 h ([4]; FeSSIF pH 5.0, 37° C.): 111.9 µg/mL (≈ 440 µM)
- Solubility 2 h ([4]; FeSSIF pH 5.0, 37° C.): 114.2 µg/mL (≈ 449 µM)
- Solubility 24 h ([4]; FeSSIF pH 5.0, 37° C.): 107.6 µg/mL (≈ 423 µM)
- Residual solid XRPD [4, 9]: Crystal form N
- Final pH [4, 10]: 5.0
- Solubility 0.5 h ([4]; Water, 37° C.): 15.1 µg/mL (≈ 59.4 µM)
- Solubility 2 h ([4]; Water, 37° C.): 11.8 µg/mL (≈ 46.4 µM)
- Solubility 24 h ([4]; Water, 37° C.): 3.1 µg/mL (≈ 12.2 µM)
- Residual solid XRPD [4, 11]: Crystal form C
- Final pH ([4]; Water, supernatant at 24 h): 5.2

Structure (SMILES): O=c1cc(-c2ccccc2)oc2c(O)c(O)ccc12 [Crystal form P, 7,8-dihydroxyflavone]
- weight gain in the dynamic vapor sorption plot [2]: less than 0.1%
- Result on day 7 (XRPD) ([3]; Acceleration 40° C./75% RH): No change
- Result on day 15 (XRPD) ([3]; Acceleration 40° C./75% RH): No change
- Result on day 7 (XRPD) ([3]; High humidity 25° C./92.5% RH): No change
- Result on day 15 (XRPD) ([3]; High humidity 25° C./92.5% RH): No change
- Result on day 7 (XRPD) ([3]; High temperature 60° C.): No change
- Result on day 15 (XRPD) ([3]; High temperature 60° C.): No change
- Result on day 7 (XRPD) ([3]; Illumination 25° C./4500 Lux): No change
- Result on day 15 (XRPD) ([3]; Illumination 25° C./4500 Lux): No change
- crystal form stability (general statement) [3]: stable and does not suffer from crystal transformation
- Solubility 0.5 h ([4]; FaSSGF pH 1.6, 37° C.): 8.6 µg/mL (≈ 33.8 µM)
- Solubility 2 h ([4]; FaSSGF pH 1.6, 37° C.): 8.6 µg/mL (≈ 33.8 µM)
- Solubility 24 h ([4]; FaSSGF pH 1.6, 37° C.): 5.6 µg/mL (≈ 22 µM)
- Residual solid XRPD [4, 5]: Crystal form P
- Final pH [4, 6]: 1.6
- Solubility 0.5 h ([4]; FaSSIF pH 6.5, 37° C.): 24.3 µg/mL (≈ 95.6 µM)
- Solubility 2 h ([4]; FaSSIF pH 6.5, 37° C.): 25.9 µg/mL (≈ 102 µM)
- Solubility 24 h ([4]; FaSSIF pH 6.5, 37° C.): 20.5 µg/mL (≈ 80.6 µM)
- Residual solid XRPD [4, 7]: Crystal form P
- Final pH [4, 8]: 6.4
- Solubility 0.5 h ([4]; FeSSIF pH 5.0, 37° C.): 74.5 µg/mL (≈ 293 µM)
- Solubility 2 h ([4]; FeSSIF pH 5.0, 37° C.): 74.3 µg/mL (≈ 292 µM)
- Solubility 24 h ([4]; FeSSIF pH 5.0, 37° C.): 71.2 µg/mL (≈ 280 µM)
- Residual solid XRPD [4, 9]: Crystal form P
- Final pH [4, 10]: 5.0
- Solubility 0.5 h ([4]; Water, 37° C.): 11.2 µg/mL (≈ 44.1 µM)
- Solubility 2 h ([4]; Water, 37° C.): 10.6 µg/mL (≈ 41.7 µM)
- Solubility 24 h ([4]; Water, 37° C.): 10.6 µg/mL (≈ 41.7 µM)
- Residual solid XRPD [4, 11]: Crystal form P
- Final pH ([4]; Water, supernatant at 24 h): 4.6

Structure (SMILES): O=c1cc(-c2ccccc2)oc2c(O)c(O)ccc12 [crystal form Q, 7,8-dihydroxyflavone]
- crystal form conversion ([1]; at room temperature): convert to the crystal form C

Structure (SMILES): O=c1cc(-c2ccccc2)oc2c(O)c(O)ccc12 [crystal form H, 7,8-dihydroxyflavone]
- crystal form conversion ([1]; at room temperature): convert to other crystal forms

Structure (SMILES): O=c1cc(-c2ccccc2)oc2c(O)c(O)ccc12 [crystal form A, 7,8-dihydroxyflavone]
- crystal form conversion ([1]; heated to 130° C.): convert to mixed crystals containing the crystal form F
- crystal form conversion ([1]; heated to 160° C.): convert to mixed crystals containing the crystal form F and the crystal form J
- crystal form conversion ([1]; under sufficient drying): convert to the crystal form N

Structure (SMILES): O=c1cc(-c2ccccc2)oc2c(O)c(O)ccc12 [crystal form O, 7,8-dihydroxyflavone]
- crystal form conversion ([1]; at room temperature): convert to the crystal form C

Structure (SMILES): O=c1cc(-c2ccccc2)oc2c(O)c(O)ccc12 [crystal form G, 7,8-dihydroxyflavone]
- crystal form conversion ([1]; heated to 140° C.): convert to the crystal form T which has a small amount of crystal form J

Structure (SMILES): O=c1cc(-c2ccccc2)oc2c(O)c(O)ccc12 [crystal form F, 7,8-dihydroxyflavone]
- crystal form conversion ([1]; at room temperature): convert to the crystal form B
- crystal form conversion ([1]; heated to 220° C.): convert to mixed crystals of the crystal form J and the crystal form P
